“And” between values parts separate entries of the source, which are not always exact repeats. Equal entries are not always repeated. Where two headings read alike, the source gives them in different places.
Tested on: healthy elderly subjects
[1] = 15 mg HTL0018318 + donepezil vs Placebo
[2] = 15 mg HTL0018318 alone vs 15 mg HTL0018318 donepezil
[3] = 15 mg HTL0018318 alone vs Placebo
[4] = 15 mg and 25 mg, in combination with or without donepezil
[5] = 15 mg in combination with donepezil
[6] = 15 mg in combination with donepezil (5 days)
[7] = 15 mg without donepezil (5 days)
[8] = 25 mg HTL0018318 + donepezil vs Placebo
[9] = 25 mg HTL0018318 alone vs 25 mg HTL0018318 donepezil
[10] = 25 mg HTL0018318 alone vs Placebo
[11] = 25 mg in combination with donepezil
[12] = 25 mg in combination with donepezil (5 days)
[13] = 25 mg without donepezil (5 days)
[14] = 25 mg without donepezil vs in combination with donepezil

Method: The study was run in three cohorts to allow within study modification of the dose of HTL0018318 in the event that an unexpected interaction occurred.
HTL0018318 was administered orally as an aqueous solution in 100 ml. Water was used as placebo. To mask the difference in taste between HTL0018318 and placebo, a peppermint strip (Listerine) was administered one minute before and after the administration of the oral solution.
A subset of AEs was created that have a possible relation to increased cholinergic stimulation, being: hyperhidrosis, salivary hypersecretion, hypertension, tachycardia, bradycardia, nausea, diarrhoea, vomiting, constipation, insomnia, dizziness, muscle spasms, hot flush and cold sweat.
Systolic and diastolic blood pressure and pulse rate, all measured in supine and standing position, safety laboratory, electrocardiogram (ECG), and 24-hour Holter ECG were performed.
Saliva production was assessed by measuring the change in weight of three Salivette® dental rolls put into the oral cavity for 3 minutes. Pulmonary function was measured using the Spirostik (Accuramed), a PC-based open spirometry system.
To this end a mixed model analysis of variance was used with treatment, period, time, treatment by period, period by time, treatment by time and treatment by period by time as fixed factors. Subject, subject by period and subject by time were random factors and the pre-HTL0018318 baseline measurement per period was a covariate. In these analysis models, all means are estimated (least square means, LSM). Statistical analysis was conducted with SAS 9.4 for Windows (SAS Institute Inc., Cary, NC, USA). […] Analyses were performed for 15 mg and 25 mg HTL0018318 dose levels separately.

CCOC(=O)N1C2CCC1CC(N1CCC3(CC1)CNC(=O)C3)C2 (stereo not shown) [HTL0018318, ethyl 3-(3-oxo-2,8-diazaspiro[4.5]dec-8-yl)-8-azabicyclo[3.2.1]octane-8-carboxylate]
FEV1/FVC, contrast estimate [1]: 1.052% | FEV 1 second, contrast estimate [1]: 0.043 L | FVC, contrast estimate [1]: 0.03719 L | LSEQ: Awake following sleep, contrast estimate [1]: 3.50 | LSEQ: Behaviour after wake, contrast estimate [1]: 1.51 | LSEQ: Getting to sleep, contrast estimate [1]: 1.59 | LSEQ: Quality of sleep, contrast estimate [1]: 2.42 | PEF, contrast estimate [1]: 0.339 L/s | Saliva, contrast estimate [1]: 0.707 g | VAS Alertness, contrast estimate [1]: −0.70 mm | VAS Calmness, contrast estimate [1]: −2.37 mm | VAS Mood, contrast estimate [1]: −0.24 mm | VAS Nausea, contrast estimate [1]: −0.08 log(mm) | FEV1/FVC, contrast estimate [2]: −0.886% | FEV 1 second, contrast estimate [2]: 0.127 L | FVC, contrast estimate [2]: 0.1702 L | LSEQ: Awake following sleep, contrast estimate [2]: −1.93 | LSEQ: Behaviour after wake, contrast estimate [2]: −0.85 | LSEQ: Getting to sleep, contrast estimate [2]: −0.79 | LSEQ: Quality of sleep, contrast estimate [2]: −0.26 | PEF, contrast estimate [2]: -0.343 L/s | Saliva, contrast estimate [2]: -0.554 g | VAS Alertness, contrast estimate [2]: −0.46 mm | VAS Calmness, contrast estimate [2]: −0.20 mm | VAS Mood, contrast estimate [2]: −0.03 mm | VAS Nausea, contrast estimate [2]: −0.01 log(mm) | FEV1/FVC, contrast estimate [3]: −0.327% | FEV 1 second, contrast estimate [3]: 0.153 L | FVC, contrast estimate [3]: 0.2035 L | LSEQ: Awake following sleep, contrast estimate [3]: −1.72 | LSEQ: Behaviour after wake, contrast estimate [3]: −1.00 | LSEQ: Getting to sleep, contrast estimate [3]: 0.82 | LSEQ: Quality of sleep, contrast estimate [3]: −5.14 | PEF, contrast estimate [3]: 0.282 L/s | Saliva, contrast estimate [3]: 0.498 g | VAS Alertness, contrast estimate [3]: −1.96 mm | VAS Calmness, contrast estimate [3]: −3.17 mm | VAS Mood, contrast estimate [3]: −2.93 mm | VAS Nausea, contrast estimate [3]: −0.06 log(mm) | number of AEs in gastrointestinal disorders class, viral gastroenteritis AEs excluded (15 mg alone): 1 AE | supine pulse rate compared with placebo [4]: no significant effects | supine systolic blood pressure compared with placebo [4]: no significant effects | cholinergic AEs, percentage of subjects [5]: 13% | nausea reports, viral gastroenteritis AEs excluded [5]: one subject | supine pulse rate [5]: 64 bpm | All AEs, percentage of subjects [6]: 50% ( 4/8 subjects) | Gastrointestinal disorders, percentage of subjects [6]: 13% (⅛ subjects) | Neurological disorders, percentage of subjects [6]: 13% (⅛ subjects) | supine pulse rate, mean difference (15 mg in combination with donepezil vs without donepezil): 3.3 bpm | cholinergic AEs, percentage of subjects (15 mg without donepezil): 0% | supine pulse rate (15 mg without donepezil): 67 bpm | All AEs, percentage of subjects [7]: 43% ( 3/7 subjects) | Gastrointestinal disorders, percentage of subjects [7]: 14% ( 1/7 subjects) | Neurological disorders, percentage of subjects [7]: 14% ( 1/7 subjects) | delta pulse rate (15 mg without donepezil vs in combination with donepezil): no significant changes | number of AEs in gastrointestinal disorders class, viral gastroenteritis AEs excluded (15 mg+donepezil): 3 AEs | FEV1/FVC, contrast estimate [8]: −0.399% | FEV 1 second, contrast estimate [8]: 0.085 L | FVC, contrast estimate [8]: 0.1784 L | LSEQ: Awake following sleep, contrast estimate [8]: 0.52 | LSEQ: Behaviour after wake, contrast estimate [8]: −0.80 | LSEQ: Getting to sleep, contrast estimate [8]: −0.74 | LSEQ: Quality of sleep, contrast estimate [8]: −1.37 | PEF, contrast estimate [8]: 0.273 L/s | Saliva, contrast estimate [8]: 0.910 g | VAS Alertness, contrast estimate [8]: −1.49 mm | VAS Calmness, contrast estimate [8]: −1.67 mm | VAS Mood, contrast estimate [8]: −0.38 mm | VAS Nausea, contrast estimate [8]: −0.04 log(mm) | FEV1/FVC, contrast estimate [9]: 2.491% | FEV 1 second, contrast estimate [9]: 0.008 L | FVC, contrast estimate [9]: -.11255 L | LSEQ: Awake following sleep, contrast estimate [9]: 0.93 | LSEQ: Behaviour after wake, contrast estimate [9]: 1.86 | LSEQ: Getting to sleep, contrast estimate [9]: 1.72 | LSEQ: Quality of sleep, contrast estimate [9]: 6.49 | PEF, contrast estimate [9]: 0.047 L/s | Saliva, contrast estimate [9]: -0.349 g | VAS Alertness, contrast estimate [9]: 0.66 mm | VAS Calmness, contrast estimate [9]: −0.07 mm | VAS Mood, contrast estimate [9]: 0.55 mm | VAS Nausea, contrast estimate [9]: −0.03 log(mm) | FEV1/FVC, contrast estimate [10]: 1.600% | FEV 1 second, contrast estimate [10]: 0.077 L | FVC, contrast estimate [10]: 0.06192 L | LSEQ: Awake following sleep, contrast estimate [10]: −1.85 | LSEQ: Behaviour after wake, contrast estimate [10]: −0.60 | LSEQ: Getting to sleep, contrast estimate [10]: 1.01 | LSEQ: Quality of sleep, contrast estimate [10]: −2.18 | PEF, contrast estimate [10]: 0.606 L/s | Saliva, contrast estimate [10]: 0.906 g | VAS Alertness, contrast estimate [10]: −1.63 mm | VAS Calmness, contrast estimate [10]: −2.34 mm | VAS Mood, contrast estimate [10]: −2.49 mm | VAS Nausea, contrast estimate [10]: −0.05 log(mm) | number of AEs in gastrointestinal disorders class, viral gastroenteritis AEs excluded (25 mg alone): 3 AEs | cholinergic AEs, percentage of subjects [11]: 69% | delta pulse rate (standing from supine) [11]: 12 bpm and 10 bpm | supine pulse rate [11]: 64 bpm | supine systolic blood pressure [11]: 120 mm Hg | All AEs, percentage of subjects [12]: 88% ( 14/16 subjects) | Gastrointestinal disorders, percentage of subjects [12]: 25% ( 4/16 subjects) | Neurological disorders, percentage of subjects [12]: 38% ( 6/16 subjects) | delta pulse rate, mean difference (25 mg in combination with donepezil vs placebo in combination with donepezil): −3.4 bpm | supine pulse rate, mean difference (25 mg in combination with donepezil vs without donepezil): 1.5 bpm | cholinergic AEs, percentage of subjects (25 mg without donepezil): 67% | delta pulse rate (standing from supine) (25 mg without donepezil): 10 bpm and 12 bpm | supine pulse rate (25 mg without donepezil): 66 bpm | supine systolic blood pressure (25 mg without donepezil): 118 mm Hg | All AEs, percentage of subjects [13]: 92% ( 11/12 subjects) | Gastrointestinal disorders, percentage of subjects [13]: 17% ( 2/12 subjects) | Neurological disorders, percentage of subjects [13]: 50% ( 6/12 subjects) | delta pulse rate, mean difference [14]: −1.6 bpm | supine systolic blood pressure, mean difference [14]: 1.6 mm Hg | delta pulse rate, mean difference (25 mg without donepezil vs placebo without donepezil): −3.7 bpm | number of AEs in gastrointestinal disorders class, viral gastroenteritis AEs excluded (25 mg+donepezil): 4 AEs | laboratory tests, ECG assessment and 24-hour Holter ECG (15 or 25 mg, with and without donepezil): No clinically significant changes | standing systolic BP, supine and standing diastolic BP, standing-supine BP, standing pulse rate (HTL0018318 in combination with donepezil vs HTL0018318 alone): no significant changes | VAS alertness, calmness, mood, and nausea (HTL0018318 in combination with donepezil vs without donepezil): no statistically significant effects | intensity and seriousness of AEs (all treatments of the study): mild or moderate in intensity and there were no serious adverse events | tolerability (multiple doses in combination with donepezil): generally well tolerated

From patent publication US20240165097A1, “PHARMACEUTICAL COMPOSITION FOR THE TREATMENT OF ALZHEIMER'S DISEASE OR DEMENTIA” (Heptares Therapeutics Limited, priority 2021, published 2024)
